According to patent US20250281464A1, “TREATMENT OF PATHOGENIC NEISSERIA SP. INFECTION WITH TRIAZOLE ANTIFUNGAL AGENTS” (Virginia Tech Intellectual Properties, Inc., priority 2022, published 2025):

Key:
N. gonorrhoeae = assay: Post-antibiotic effect (PAE) against N. gonorrhoeae; assay type: cell-based, Neisseria gonorrhoeae; details: 1 h exposure at 10×MIC
Description: Determining the PAE of a new antimicrobial is an important step for dosing and has clinical importance.

[1] = MIC against normal gut microbiota; assay type: cell-based
Description: Disrupting the intestinal microbiota using broad-spectrum antimicrobial therapy increases the susceptibility of hosts to C. difficile colonization.

L. jensenii = assay: MIC against commensal vaginal Lactobacillus strains; assay type: cell-based, Lactobacillus jensenii; details: for MIC: Lactobacillus jensenii
Description: (§1) N. gonorrhoeae pathogenesis greatly depends on colonization of the reproductive tract. One of the natural barriers of such colonization is an intact healthy microbiome. Species of lactobacilli present in the genitourinary tract play a significant role in hindering colonization by Neisseria(1).
(§2) A healthy vaginal microbiome that is dominated by Lactobacillus spp. is less susceptible to N. gonorrhoeae infection and other sexually transmitted diseases (STDs). […] We tested the activity of azoles against important members of healthy vaginal microbiota that inhibit N. gonorrhoeae colonization.

L. gasseri = assay: as above; assay type: cell-based, Lactobacillus gasseri; details: for MIC: Lactobacillus gasseri
Description: as §1, §2

C[C@@H](c1nc(-c2ccc(C#N)cc2)cs1)[C@](O)(Cn1cncn1)c1cc(F)ccc1F [Isavuconazole]
PAE (N. gonorrhoeae; strain FA 1090): 10 h
PAE (N. gonorrhoeae; strain WHO P): 10 h
PAE (N. gonorrhoeae; strain WHO Y): 10 h
MIC Range ([1]; Bacteroides adolescentis (2 strains)): >256 µg/mL
MIC Range ([1]; Bacteroides breve (2 strains)): >256 µg/mL
MIC Range ([1]; Bacteroides longum (2 strains)): >256 µg/mL
MIC (L. jensenii; L. jensenii HM-105): > 256 µg/mL
MIC (L. jensenii; L. jensenii HM-372): > 256 µg/mL
MIC (L. jensenii; L. jensenii HM-374): > 256 µg/mL
MIC (L. jensenii; L. jensenii HM-639): > 256 µg/mL
MIC (L. jensenii; L. jensenii HM-640): > 256 µg/mL
MIC (L. jensenii; L. jensenii HM-645): > 256 µg/mL
MIC (L. jensenii; L. jensenii HM-646): > 256 µg/mL
MIC Range (L. jensenii; Table 6, L. jensenii (7 strains)): ≥256 µg/mL
MIC (L. gasseri; L. gasseri HM-407): > 256 µg/mL
MIC (L. gasseri; L. gasseri HM-642): > 256 µg/mL
MIC (L. gasseri; L. gasseri HM-644): > 256 µg/mL
MIC (L. gasseri; L. gasseri HM-647): > 256 µg/mL
MIC Range (L. gasseri; Table 6, L. gasseri (4 strains)): ≥256 µg/mL
